Measured values from patent US10577349B2 (Sanford Burnham Prebys Medical Discovery Institute, priority 2015, dated 2020).
Values after ≈ are worked out from the molar mass of the structure shown. Values joined by “and” are separate entries in the source; they are usually repeats but may differ in a detail not shown here. Identical values can stand only once. Like-named read-outs stand apart in the source and are kept apart here.

Tests used:
[1] = Aqueous Solubility in pION's buffer; type: physicochemical
[2] = Blood chemistry following Compound 38 IP administration; type: in vivo; conditions: Compound 38 1 mg/kg IP, individual mice #4-#6
Text: The growth of A375 tumors in immunodeficient mice subjected to either BRAFi alone or BRAFi combined with Compound 38 was monitored in vivo. Compound 38 toxicity in mice was monitored by liver function (Table 5).

[3] = test system: UACC903 and WM1346 cell lines; test: Reverse phase protein array analysis (RPPA), average of both cell lines; type: cell-based, human
Description: UACC903 and WM1346 cells were treated with DMSO (controls) or 1 μM Compound 38 for 24 h in triplicate. Cells were lysed with lysis buffer (1% Triton X-100, 50 mM HEPES, pH 7.4, 150 mM NaCl, 1.5 mM MgCl2, 1 mM EGTA, 100 mM NaF, 10 mM Na pyrophosphate, 1 mM Na3VO4, 10% glycerol, with freshly added protease and phosphatase inhibitors) and centrifuged at 13,000 g for 20 minutes. Denatured protein lysates containing the same amount of protein were then subjected to RPPA analysis at the RPPA Core Facility, Md. Anderson Cancer Center, as previously described (Tibes. R., et al. Reverse phase protein array: validation of a novel proteomic technology and utility for analysis of primary leukemia specimens and hematopoietic stem cells. Molecular cancer therapeutics 5, 2512-2521 (2006)),
A reverse phase protein array (RPPA) analysis of BRAF- and NRAS-mutant melanomas was performed to identify protein networks affected by Compound 38 (Table 4).

[4] = test system: parental and BRAFi-resistant melanoma cultures (A375, WM793, Lu1205); test: 2D growth and colony-forming efficiency in parental and BRAFi-resistant melanoma cultures; type: cell-based, human; conditions: parental (sensitive) and BRAFi-resistant cultures
Description: For the colony formation assay, cells were plated in triplicate at 500 cells/well in 6-well plates and grown for 16 h before compounds were added for 1-2 weeks, depending on cell line. Colonies were stained with Accustain Crystal Violet solution (Sigma-Aldrich) for 30 min. Plates were rinsed with water, and colonies (>50 cells per clone) were counted. Colony formation efficiency was calculated relative to the number of colonies in control (DMSO)-treated wells. For soft agar assays, melanoma cells were mixed with agar at a final concentration of 0.35% and layered on top of 0.7% agar in 6-well plates. Media supplemented with different compounds was added to plates and changed once per week. After 4 weeks, colonies were counted in 10 random high-power fields.
To confirm the effect of Compound 38 on the eIF4F complex in BRAFi resistant cultures on neoplastic growth, Compound 38 effectiveness on their two-dimensional (2D) growth in vitro was assessed. […] Parental and BRAFi-resistant NF1-mutant melanomas (A) were monitored for their response to Compound 38 at the indicated concentrations and for their ability to form CFE (B) (A375: FIG. 16A and FIG. 16B, WM793: FIG. 17A and FIG. 17B, Lu1205: FIG. 18A and FIG. 18B). Effectiveness of Compound 38 in NF1-mutant melanoma was further confirmed in primary cultures (FIG. 19A and FIG. 19B).

## O=C(/C=C/c1cncc(F)c1)c1c(-c2ccccc2)c2cc(Cl)ccc2[nH]c1=O [Compound 38, 6-Chloro-3-[3-(5-fluoro-pyridin-3-yl)-acryloyl]-4-phenyl-1H-quinolin-2-one]
[1]; aqueous buffer, pH 5.0, read-out: Aqueous Solubility in pION's buffer pH 5.0
  solubility: 6.5 µg/mL (≈ 16.1 µM)
[1]; pH 6.2, aqueous buffer, read-out: Aqueous Solubility in pION's buffer pH 6.2
  solubility: 6.6 µg/mL (≈ 16.3 µM)
[1]; pH 7.4, aqueous buffer, read-out: Aqueous Solubility in pION's buffer pH 7.4
  solubility: 5.5 µg/mL (≈ 13.6 µM)
[2]
  CRE (Kidney): <18 µmol/L
[2]; 1 mg/kg
  ALB (Liver): 32 g/L (2×) and 34 g/L
  ALP (Liver): 88 μ/L and 54 μ/L and 24 μ/L
  ALT (Liver): 126 μ/L and >1000 μ/L and 152 μ/L
  AMY (Pancreas): 701 μ/L and 811 μ/L and 1625 μ/L
  BUN (Kidney): 7.5 mmol/L and 9.9 mmol/L and 7.9 mmol/L
  CA (Electrolytes): 2.25 mmol/L and 2.1 mmol/L and 2.14 mmol/L
  GLOB (Liver): 10 g/L and 11 g/L (2×)
  GLU (General metabolism): 17.6 mmol/L and 13.8 mmol/L and 16.5 mmol/L
  K^+ (Electrolytes): 5.5 mmol/L and 8 mmol/L and 6.5 mmol/L
  Na^+ (Electrolytes): 137 mmol/L (2×) and 146 mmol/L
  PHOS (Electrolytes): 2.4 mmol/L and 2.27 mmol/L and 1.64 mmol/L
  TBIL (Liver): 5 μmol/L and 4 μmol/L (2×)
  TP (Liver): 42 g/L and 44 g/L and 43 g/L
[3]
  Ratio [Compound 38/DMSO] A-Raf, Average: 0.9
  Ratio [Compound 38/DMSO] AR, Average: 0.82
  Ratio [Compound 38/DMSO] ATM, Average: 0.81
  Ratio [Compound 38/DMSO] ATR, Average: 0.80
  Ratio [Compound 38/DMSO] BRCA2, Average: 0.93
  Ratio [Compound 38/DMSO] C-Raf, Average: 0.92
  Ratio [Compound 38/DMSO] Chk1, Average: 0.91
  Ratio [Compound 38/DMSO] Ets-1, Average: 0.92
  Ratio [Compound 38/DMSO] GCN5L2, Average: 0.87
  Ratio [Compound 38/DMSO] INPP4b, Average: 0.9
  Ratio [Compound 38/DMSO] MSH6, Average: 0.77
  Ratio [Compound 38/DMSO] PI3K-p85, Average: 0.95
  Ratio [Compound 38/DMSO] PI3K-p110-alpha, Average: 0.95
  Ratio [Compound 38/DMSO] Rad51, Average: 0.85
  Ratio [Compound 38/DMSO] Raptor, Average: 0.86
  Ratio [Compound 38/DMSO] Rictor_pT1135, Average: 0.87
  Ratio [Compound 38/DMSO] S6_pS235_S236, Average: 0.67
  Ratio [Compound 38/DMSO] S6_pS240_S244, Average: 0.63
  Ratio [Compound 38/DMSO] Stat5a, Average: 0.76
  Ratio [Compound 38/DMSO] Tuberin, Average: 0.65
  Ratio [Compound 38/DMSO] YB1, Average: 0.73
  Ratio [Compound 38/DMSO] c-Kit, Average: 0.90
  Ratio [Compound 38/DMSO] c-Myc, Average: 0.76
  Ratio [Compound 38/DMSO] mTOR, Average: 0.80
  Ratio [Compound 38/DMSO] mTOR_pS2448, Average: 0.74
  Ratio [Compound 38/DMSO] p70-S6K_pT389, Average: 0.81
[4]
  Growth in 2D and colony-forming efficiency (CFE): effectively attenuated in both parental (sensitive) and resistant cultures
